Consider 13 molecules from ChEMBL document CHEMBL4808232, “Discovery of IDO1 inhibitors containing a decahydroquinoline, decahydro-1,6-naphthyridine, or octahydro-1H-pyrrolo[3,2-c]pyridine scaffold” (Bioorg Med Chem Lett, 2021).

A short description of data set [1]: Unbound clearance in male Wistar Han rat at 0.05 mg/kg, iv. The class given is ADME, organism-based. Conditions: in vivo.
Data set [2] addresses T1, Indoleamine 2,3-dioxygenase 1 (Homo sapiens, UniProt P14902). The data set can be described thus: Inhibition of IDO1 in human whole blood assessed as unbound concentration. The class given is tissue-based.
Data set [3] is described as follows: MRT in male Wistar Han rat at 0.05 mg/kg, iv. Format: ADME, organism-based. The following applies: in vivo.
A short description of data set [4]: Clearance in male Wistar Han rats at 0.05 mg/kg, iv. The class given is ADME, organism-based. The following applies: rat, in vivo.
Data set [5] addresses T1, Indoleamine 2,3-dioxygenase 1. Nature of the data set: Inhibition of IDO1 in human whole blood. The class given is tissue-based.
The target is the same in data set [6]. Nature of the data set: Inhibition of IDO1 in human HeLa cells assessed as production of N-formylkynurenine using tryptophan as substrate in presence of inactivated fetal bovine serum. The class given is cell-based.
Data set [7] in a line: MRT in Beagle dog at 0.05 mg/kg, iv. The class given is ADME, organism-based, Canis lupus familiaris. The following applies: in vivo.
The nature of data set [8]: Clearance in Beagle dog at 0.05 mg/kg, iv. The class given is ADME, organism-based, Canis lupus familiaris. The following applies: in vivo.
The nature of data set [9]: Unbound clearance in Beagle dog at 0.05 mg/kg, iv. Format: ADME, organism-based, Canis lupus familiaris. The following applies: in vivo.
Where [10] appears, read: male, Wistar Han, read-out: MRT.

T1 sequence (P14902 whole entry): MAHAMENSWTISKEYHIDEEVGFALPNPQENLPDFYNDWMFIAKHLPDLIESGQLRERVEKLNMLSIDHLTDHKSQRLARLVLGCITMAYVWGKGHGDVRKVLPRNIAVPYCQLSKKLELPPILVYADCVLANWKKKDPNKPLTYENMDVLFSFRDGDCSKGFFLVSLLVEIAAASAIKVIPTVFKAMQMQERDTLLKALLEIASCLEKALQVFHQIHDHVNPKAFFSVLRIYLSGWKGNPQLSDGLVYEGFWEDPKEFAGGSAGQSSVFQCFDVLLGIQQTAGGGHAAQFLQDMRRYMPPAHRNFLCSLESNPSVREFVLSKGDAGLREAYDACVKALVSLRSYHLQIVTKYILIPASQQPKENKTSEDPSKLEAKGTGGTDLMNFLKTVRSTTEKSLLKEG

The molecule `C[C@@H](C(=O)Nc1ccc(F)cc1)C1CCC2C(CCCN2C(=O)c2cccc(Cl)c2)C1` (stereo in doubt; 3) had a CL free in data set [1] of 265.6 L/h/kg. Besides, the IC50 (usually the concentration that inhibits the measured activity by half) in data set [2] amounted to 0.13 nM; in data set [5] it was 32 nM; in [6], 1 nM. Further, the MRT (commonly the average time that molecules of a dose stay in the body) in data set [3] (setting [10]) was 1.6 h. Moreover, in data set [4], the clearance – broadly, the rate of elimination divided by the concentration – worked out at 3.06 L/h/kg.
`O=C(c1cccc(Cl)c1)N1CCCC2CC(C3(C(=O)Nc4ccc(F)cc4)CCC3)CCC21` (stereo in doubt; 7): the IC50 in data set [2] turned out to be 0.98 nM; in data set [5], 123 nM; in data set [6] it was 2.4 nM.
Turning to `O=C(C1CC1)N1CCCC2CC(C3(C(=O)Nc4ccc(F)cc4)CCC3)CCC21` (stereo in doubt; 12), the IC50 came to 0.86 nM in data set [2], 15 nM in [5] and 1.5 nM in [6].
Consider `Cc1nccc(N2CCCC3CC(C4(C(=O)Nc5ccc(F)cc5)CCC4)CCC32)n1` (stereo in doubt; 15), for which the CL free in data set [1] is 78.54 L/h/kg. For the same molecule, the concentration for half-maximal inhibition (IC50) in data set [2] came out at 0.29 nM; in data set [5], 10 nM; in [6] it was 1.6 nM. The MRT in data set [3] (setting [10]) came to 1.7 h.
In data set [1], `O=C(Nc1ccc(F)cc1)C1(C2CCC3C(CCCN3c3ccnc(C(F)(F)F)n3)C2)CCC1` (stereo in doubt; 20) yielded a CL free of 592.7 L/h/kg. Besides, the IC50 in [2] was 0.1 nM; in data set [5], 48 nM; in [6] it was 1.9 nM. The molecule further came in with an MRT in [3] (0.05 mg/kg) of 2.7 h.
Consider `O=C(CN1CCC2C(CCCN2C(=O)c2cccc(Cl)c2)C1)Nc1ccc(F)cc1` (stereo in doubt; 24), for which the CL free in [1] was found to be 84.06 L/h/kg. For the same molecule, in data set [3] (setting [10]), the MRT amounted to 1.6 h. Also, the clearance in data set [4] is 3.66 L/h/kg. The IC50 in [6] was 2 nM.
As for `CC(C(=O)Nc1ccc(Cl)cc1)N1CCC2C(CCCN2C(=O)OC2CC2)C1` (stereo in doubt; 25), the IC50 in data set [5] was 293 nM; in data set [6], 3.7 nM.
Turning to `CC(C(=O)Nc1ccc(Cl)cc1)N1CCC2C(CCCN2C(=O)OC2CC2)C1` (stereo in doubt; 27), the CL free in [1] worked out at 96.78 L/h/kg; in data set [9] it was 43.6 L/h/kg. Further, the MRT was 8.1 h in data set [7] and 2.9 h in data set [3] (setting [10]). Besides, the IC50 in [2] is 0.73 nM; in [5], 43 nM; in [6], 1.9 nM. The figures for the clearance in data set [8] and in data set [4] were 0.54 L/h/kg and 1.32 L/h/kg, respectively.
Consider `Cc1nccc(N2CCCC3CN(C(C)C(=O)Nc4ccc(Cl)cc4)CCC32)n1` (stereo in doubt; 31), for which the concentration for half-maximal inhibition (IC50) in [5] was found to be 130 nM; in data set [6], 2.9 nM.
With `Cc1nccc(N2CCCC3CN(C(C)C(=O)Nc4ccc(Cl)cc4)CCC32)n1` (stereo in doubt; 32), the CL free in data set [1] was 142.9 L/h/kg. Also, in [3] (setting [10]), the MRT was found to be 2.9 h. The clearance in data set [4] amounted to 1.86 L/h/kg. Further, the IC50 in data set [6] is 12 nM.
For `CC(C(=O)Nc1ccc(Cl)cc1)N1CCC2C(CCCN2c2ccnc(C(F)(F)F)n2)C1` (stereo in doubt; 33), in data set [1], the CL free is 506.3 L/h/kg. In addition, the mean residence time MRT in data set [3] (setting [10]) came to 3 h. Moreover, in [4], the clearance came to 1.14 L/h/kg. In addition, the IC50 in data set [6] was determined as 15 nM.
For the molecule `CC(C(=O)Nc1ccc(Cl)cc1)N1CCC2C(CCCN2c2ccnc(C(F)(F)F)n2)C1` (stereo in doubt; 34), the CL free in data set [1] turned out to be 780.24 L/h/kg. For the same molecule, the IC50 worked out at 809 nM in data set [5] and 3.6 nM in data set [6].
With `CC(C(=O)Nc1ccc(Cl)cc1)N1CCC2C(CCCN2c2ccnc(C(F)(F)F)n2)C1` (stereo in doubt; 36), the CL free in data set [1] amounted to 1666 L/h/kg. In addition, in data set [3] (0.05 mg/kg), the MRT amounted to 3.7 h. The IC50 was determined as 1000 nM in data set [5] and 5.4 nM in data set [6].
